According to US20260027100A1, “THERAPEUTIC TYROSINE KINASE INHIBITORS FOR MYELIN OLIGODENDROCYTE GLYCOPROTEIN ANTIBODY DISEASE (MOGAD)” (Principia Biopharma Inc., priority 2022, published 2026):

What was measured:
Type in all cases: in vivo, human
[1] = tested on: participants with relapsing multiple sclerosis; experiment: Phase 2b dose-finding trial (DRI15928): safety (TEAEs, AESIs, PCSAs); conditions: Phase 2b trial
Procedure: (§1) The choice of the dose of 60 mg of the BTK inhibitor taken with food is based on the results of a Phase 2b dose-finding trial for tolebrutinib in participants with relapsing multiple sclerosis (DRI15928). See for example, Reich, D. S., et al., Safety and efficacy of tolebrutinib, an oral brain-penetrant BTK inhibitor, in relapsing multiple sclerosis: a phase 2b, randomised, double-blind, placebo-controlled trial. Lancet Neurol, 2021. 20(9): p. 729-738.
There were low numbers of AESIs and PCSAs observed.
(§2) The choice of the dose of 60 mg tolebrutinib taken with food is based on the results of the Phase 2b dose-finding trial for tolebrutinib in adult participants with relapsing multiple sclerosis (DRI15928).

[2] = tested on: participants with relapsing multiple sclerosis; experiment: Phase 2b dose-finding trial (DRI15928): treatment response versus exposure, new gadolinium-enhancing T1-hyperintense lesions; conditions: after 12 weeks of treatment
Procedure: as §1, §2

[3] = Phase 2b dose-finding trial (DRI15928): PK data and effect of fed status on tolebrutinib exposure; conditions: effect of fed status on exposure; Phase 2b trial in relapsing multiple sclerosis
Procedure: as §1, §2

[4] = Ongoing tolebrutinib Phase 3 trials: hepatic safety; conditions: ongoing Phase 3 trials
Source text: Thus, there is a need to mitigate the risk of hepatic injury and provide safe treatment for patients with MOGAD.

## C=CC(=O)N1CCC[C@@H](n2c(=O)n(-c3ccc(Oc4ccccc4)cc3)c3c(N)nccc32)C1 [tolebrutinib, (R)-1-(1-acryloylpiperidin-3-yl)-4-amino-3-(4-phenoxyphenyl)-1H-imidazo[4,5-c]pyridin-2(3H)-one]
[1]
  numbers of AESIs and PCSAs observed: low numbers
[1]; overall
  new risks identified: no new risks were identified
[1]; tolebrutinib treatment arms
  correlation between dose administered and number of TEAEs: no correlation
  most common events (preferred terms): headache, upper respiratory tract infection, and nasopharyngitis
[2]
  correlation between treatment response and exposure (new gadolinium-enhancing T1-hyperintense lesions): higher exposure was associated with low numbers of new gadolinium-enhancing T1-hyperintense lesions
[3]
  increase in AUC0-24 (positive food effect): approximately 2 fold
[4]
  drug-induced liver injury: Drug-induced liver injury has been identified
  time of occurrence of reported liver injury events after start of administration: 2 to 3 months
[4]; after tolebrutinib discontinuation
  course of liver enzyme elevation after discontinuation: appears reversible
